Assay results published in US6852689B2, “Methods for administration of antibiotics” (priority 1998, dated 2005).
Several values for one entry are separate records, joined by “and”; a condition that tells them apart may be missing. Equal values may be shown once. Read-outs that look alike come from different tables or passages of the source.

Experiments:
dogs [1] = details: dog, in vivo, iv, 40 mg/kg/day; cited from earlier work
[2] = Study A: steady state plasma concentrations of daptomycin on day 18 by HPLC; details: dogs
Description: (§1) Skeletal muscle toxicity was measured in dogs by increases in CPK levels to above the normal range and by microscopic changes in skeletal tissue.
Steady state plasma concentrations of daptomycin on day 18 of dosing were determined by HPLC.

dogs [3] = assay: Study A: skeletal muscle toxicity (serum CPK, microscopic myopathy) after repeated intravenous dosing; details: for Diaphragm myofiber degeneration, sites affected/sites examined / Heart myofiber degeneration, sites affected/sites examined / Skeletal muscle myofiber degeneration, sites affected/sites examined / Skeletal muscle myofiber regeneration, sites affected/sites examined: iv 20 days
Description: as §1
Treated animals were sacrificed at approximately one dosing interval after the last dose and muscle tissue was microscopically examined for indications of myopathy.

[4] = tested on: human volunteers and patients; details: in vivo, cited from earlier work
[5] = cited from earlier work
[6] = Study B: steady state plasma concentrations of daptomycin on day 18 by HPLC
Description: In order to study the effects of threshold plasma concentration on skeletal muscle toxicity, dogs (4 male dogs/group) were administered dose regimens of saline q8h, daptomycin 5 mg/kg q24h (approximate NOELq24h) and daptomycin 5 mg/kg q8h intravenously for 20 days.
As in Example 1, steady state plasma concentrations of daptomycin on day 18 of dosing were determined by HPLC.

rats = details: rat, in vivo, iv, 75 mg/kg/day; cited from earlier work
dogs [7] = assay: Study B: skeletal muscle toxicity (serum CPK, microscopic myopathy) after repeated intravenous dosing; assay type: in vivo, dog
Description: Serum CPK levels were determined as disclosed in Example 1. […] In contrast, CPK levels at 5 mg/kg q8h were elevated compared to 5 mg/kg q24h or saline controls.

[8] = human, in vivo
gram-positive bacteria = details: cited from earlier work
human patients = assay: Clinical study (Example 4): serum CPK and skeletal muscle effects in hospitalized adult subjects with gram-positive infections; assay type: in vivo
Description: In order to study whether an increased dosing interval would prevent transient skeletal muscle toxicity in patients, daptomycin was administered intravenously to hospitalized adult subjects with serious gram-positive bacteremia or with a variety of infections due to gram-positive bacteria that was resistant to vancomycin or who were otherwise refractory to, or contraindicated for, currently available therapy. The subjects were treated for a period of 7-21 days. Serum CPK levels were determined prior to first antibiotic treatment and every other day for the first seven days of treatment, and daily thereafter.

CCCCCCCCCC(=O)N[C@@H](Cc1c[nH]c2ccccc12)C(=O)N[C@H](CC(N)=O)C(=O)N[C@@H](CC(=O)O)C(=O)N[C@@H]1C(=O)NCC(=O)N[C@@H](CCCN)C(=O)N[C@@H](CC(=O)O)C(=O)N[C@H](C)C(=O)N[C@@H](CC(=O)O)C(=O)NCC(=O)N[C@H](CO)C(=O)N[C@@H]([C@H](C)CC(=O)O)C(=O)N[C@@H](CC(=O)c2ccccc2N)C(=O)O[C@@H]1C [daptomycin]
Skeletal muscle finding (dogs [1]): mild myopathy
Cmax ratio ([2]; 25 mg/kg q8h compared to 25 mg/kg q24h): 1.23 fold higher
AUC ratio ([2]; 25 mg/kg q8h compared to 75 mg/kg q24h): 0.37 fold higher
Time with plasma concentration below 27 μg/mL before next dose ([2]; 75 mg/kg q24h): approximately 12 hours
Cmax ratio ([2]; 75 mg/kg q24h compared to 25 mg/kg q8h): approximately 2.8 fold higher
Increases in serum CPK correlating with minimal skeletal myofiber degeneration (dogs [3]; dog, in vivo): three- to 25
Microscopic effect on heart muscle (dogs [3]; dog, in vivo): No microscopic degenerative effect
Time of CPK peak during treatment (dogs [3]; dog, in vivo): approximately 1 week
Increase in CPK levels (dogs [3]; dog, in vivo, 25 mg/kg): greater than 10 fold
Incidence of Microscopic Myopathy (sites with minimal degenerative changes/sites examined) (dogs [3]; dog, in vivo, iv, 75 mg/kg): 8/28
Peak CPK (dogs [3]; dog, in vivo, iv, 75 mg/kg): 990 U/L
Increase in toxicity as measured by incidence of microscopic myopathy (dogs [3]; dogs, 25 mg/kg three times a day compared to once daily): 5 fold
Diaphragm myofiber degeneration, sites affected/sites examined (dogs [3]; dogs, 25 mg/kg q8h): 1/4
Heart myofiber degeneration, sites affected/sites examined (dogs [3]; dogs, 25 mg/kg q8h): 0/4
Skeletal muscle myofiber degeneration, sites affected/sites examined (dogs [3]; dogs, 25 mg/kg q8h): 14/24
Skeletal muscle myofiber regeneration, sites affected/sites examined (dogs [3]; dogs, 25 mg/kg q8h): 9/24
Diaphragm myofiber degeneration, sites affected/sites examined (dogs [3]; dogs, 25 mg/kg q24h): 0/4
Heart myofiber degeneration, sites affected/sites examined (dogs [3]; dogs, 25 mg/kg q24h): 0/4
Skeletal muscle myofiber degeneration, sites affected/sites examined (dogs [3]; dogs, 25 mg/kg q24h): 3/24
Skeletal muscle myofiber regeneration, sites affected/sites examined (dogs [3]; dogs, 25 mg/kg q24h): 2/24
Diaphragm myofiber degeneration, sites affected/sites examined (dogs [3]; dogs, 75 mg/kg q24h): 0/4
Heart myofiber degeneration, sites affected/sites examined (dogs [3]; dogs, 75 mg/kg q24h): 0/4
Skeletal muscle myofiber degeneration, sites affected/sites examined (dogs [3]; dogs, 75 mg/kg q24h): 8/24
Skeletal muscle myofiber regeneration, sites affected/sites examined (dogs [3]; dogs, 75 mg/kg q24h): 1/24
Adverse effects ([4]; 3 mg/kg): occasional adverse effects
Patients with transient muscular weakness and pain ([4]; 4 mg/kg): two of five
Plasma protein binding [5]: high
half-life ([6]; dog, in vivo): 2.5 h
Time below 10 μg/mL plasma concentration ([6]; dogs, 5 mg/kg q8h): 6 h
AUC ratio ([6]; dogs, 5 mg/kg q8h compared to 5 mg/kg q24h): 2.6 fold higher
Time below 10 μg/mL plasma concentration ([6]; dogs, 5 mg/kg q24h): 18 h
Skeletal muscle finding (rats): mild myopathy
Effect on heart muscle (dogs [7]; dog, in vivo): No degenerative effect
Increases in CPK levels correlating with very minimal myofiber degeneration (dogs [7]; dog, in vivo): zero- to four-fold
Heart myofiber degeneration, sites affected/sites examined (dogs [7]; dog, in vivo, iv, 5 mg/kg): 0/4
NOEL (dogs [7]; dogs, q24h dosing interval): approximately 5 mg/kg
Predicted Cmax ([8]; 4 mg/kg): 69.2 µg/mL
Predicted Cmax ([8]; 6 mg/kg): 86.8 µg/mL
MIC of certain vancomycin-resistant strains relative to most vancomycin-susceptible strains (gram-positive bacteria): two- to four-fold
MIC relative to that of vancomycin (gram-positive bacteria; susceptible strains, typical): 4 fold lower
Muscular pain or weakness (human patients; human, in vivo): None of the patients experienced any muscular pain or weakness
Total Number of Patients with Presumed Drug-Related Adverse Skeletal Muscle Effects/Total Evaluated (human patients; iv 7-21 days, 4 mg/kg q24h): 0/8
Total Number of Patients with Presumed Drug-Related Adverse Skeletal Muscle Effects/Total Evaluated (human patients; iv 7-21 days, 6 mg/kg q24h, 6 mg/kg): zero of nine and 0/9
Total Number of Patients with Presumed Drug-Related Adverse Skeletal Muscle Effects/Total Evaluated (human patients; iv, 6 mg/kg followed by 3 mg/kg q12h): 0/3
